Source: patent publication US12318462B2, “Multi-coated nanoparticles comprising multiple coating layers of chitosan and polyglutamic acid, composition for skin care comprising the same and method for manufacturing the same” (BINOTEC co., ltd., priority 2020, dated 2025)

Assay: DPPH radical scavenging ability of nanoparticles by time
Format: biochemical
Protocol: DPPH radical scavenging ability was measured to confirm the effect of antioxidant physiological activity according to the sustained-release release of nanoparticles according to the coating layer structure and amount of hydrogel.
50 μL of 0.2 mM 1,1-diphenyl-2-picrylhydrazyl (DPPH) was added to 100 ul of each sample solution. Then, it was stirred and reacted at room temperature for 30 minutes, and then the ELISA reader (Powerwave XS2, Biotek, USA) was used to measure the absorbance at […]. The control groups were Butylated Hydroxynisole (BHA) and Catechin.
Next, using Equation 2 below, the DPPH radical scavenging ability of each nanoparticle was calculated. DPPH radical scavenging ability (%)=(1−absorbance of sample added group/absorbance of no added group)×100 [Equation 2]

Molecule: COc1ccc(O)c(C(C)(C)C)c1 [BHA, Butylated Hydroxynisole]
- DPPH radical scavenging ability (18 hr): 93.2084%
- DPPH radical scavenging ability (24 hr): 82.3362%
- DPPH radical scavenging ability (48 hr): 47.0031%

Molecule: Catechin
- DPPH radical scavenging ability (18 hr): 93.4211%
- DPPH radical scavenging ability (24 hr): 87.4680%
- DPPH radical scavenging ability (48 hr): 70.5607%
